In PubChem BioAssay (NCI):
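Five concentrations, 48 hours, 96-well plates. TGI denotes the concentration required for complete inhibition of growth.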

Experiments:
Experiment in all cases: NCI tumour cell line growth inhibition, 48 h
OVCAR-3 ovarian = test system: OVCAR-3 ovarian
OVCAR-8 ovarian = test system: OVCAR-8 ovarian
UACC-62 melanoma = test system: UACC-62 melanoma
HL-60(TB) leukemia = test system: HL-60(TB) leukemia
786-0 renal = test system: 786-0 renal
K-562 leukemia = test system: K-562 leukemia
SNB-19 CNS = test system: SNB-19 CNS
SK-MEL-2 melanoma = test system: SK-MEL-2 melanoma
SK-MEL-28 melanoma = test system: SK-MEL-28 melanoma
OVCAR-5 ovarian = test system: OVCAR-5 ovarian
UO-31 renal = test system: UO-31 renal
HS 578T breast = test system: HS 578T breast
SW-620 colon = test system: SW-620 colon
UACC-257 melanoma = test system: UACC-257 melanoma
HOP-92 NSCLC = test system: HOP-92 NSCLC
SN12C renal = test system: SN12C renal
SF-295 CNS = test system: SF-295 CNS
MOLT-4 leukemia = test system: MOLT-4 leukemia
MCF7 breast = test system: MCF7 breast
MDA-N = test system: MDA-N
NCI/ADR-RES ovarian = test system: NCI/ADR-RES ovarian
HT29 colon = test system: HT29 colon
HCT-116 colon = test system: HCT-116 colon
NCI-H460 lung = test system: NCI-H460 lung
SNB-75 CNS = test system: SNB-75 CNS
ACHN renal = test system: ACHN renal
BT-549 breast = test system: BT-549 breast
RXF 393 renal = test system: RXF 393 renal
U251 CNS = test system: U251 CNS
EKVX NSCLC = test system: EKVX NSCLC
HCT-15 colon = test system: HCT-15 colon
M14 melanoma = test system: M14 melanoma
SK-OV-3 ovarian = test system: SK-OV-3 ovarian
RPMI-8226 leukemia = test system: RPMI-8226 leukemia
TK-10 renal = test system: TK-10 renal
NCI-H522 lung = test system: NCI-H522 lung
HCC-2998 colon = test system: HCC-2998 colon
DU-145 prostate = test system: DU-145 prostate
MDA-MB-231 breast = test system: MDA-MB-231 breast
T-47D breast = test system: T-47D breast
CCRF-CEM leukemia = test system: CCRF-CEM leukemia
LOX IMVI melanoma = test system: LOX IMVI melanoma
A549 NSCLC = test system: A549 NSCLC
SF-539 CNS = test system: SF-539 CNS
MDA-MB-435 = test system: MDA-MB-435
HOP-62 NSCLC = test system: HOP-62 NSCLC
COLO 205 colon = test system: COLO 205 colon
PC-3 prostate = test system: PC-3 prostate
MALME-3M melanoma = test system: MALME-3M melanoma
NCI-H23 lung = test system: NCI-H23 lung
SK-MEL-5 melanoma = test system: SK-MEL-5 melanoma
IGROV1 ovarian = test system: IGROV1 ovarian
KM12 colon = test system: KM12 colon
OVCAR-4 ovarian = test system: OVCAR-4 ovarian
CAKI-1 renal = test system: CAKI-1 renal
NCI-H226 lung = test system: NCI-H226 lung
A498 renal = test system: A498 renal
SF-268 CNS = test system: SF-268 CNS
SR leukemia = test system: SR leukemia

O=c1cc(NNc2cccc3ccccc23)[nH]c(=O)[nH]1
TGI (OVCAR-3 ovarian): 27.3 µM
TGI (OVCAR-8 ovarian): 36.8 µM
TGI (UACC-62 melanoma): 31.8 µM
TGI (HL-60(TB) leukemia): 7.99 µM
TGI (786-0 renal): 18.6 µM
TGI (K-562 leukemia): > 100 µM
TGI (SNB-19 CNS): 29 µM
TGI (SK-MEL-2 melanoma): 28.4 µM
TGI (SK-MEL-28 melanoma): 33.3 µM
TGI (OVCAR-5 ovarian): 31.1 µM
TGI (UO-31 renal): 29.8 µM
TGI (HS 578T breast): 68.7 µM
TGI (SW-620 colon): 40 µM
TGI (UACC-257 melanoma): 29.4 µM
TGI (HOP-92 NSCLC): 31.7 µM
TGI (SN12C renal): 29.9 µM
TGI (SF-295 CNS): 31.4 µM
TGI (MOLT-4 leukemia): 56.8 µM
TGI (MCF7 breast): 4.74 µM
TGI (MDA-N): 24.4 µM
TGI (NCI/ADR-RES ovarian): 40.9 µM
TGI (HT29 colon): 31.9 µM
TGI (HCT-116 colon): 31.2 µM
TGI (NCI-H460 lung): 43.5 µM
TGI (SNB-75 CNS): 31.4 µM
TGI (ACHN renal): 30.3 µM
TGI (BT-549 breast): 30.2 µM
TGI (RXF 393 renal): 31.9 µM
TGI (U251 CNS): 28.3 µM
TGI (EKVX NSCLC): 27.7 µM
TGI (HCT-15 colon): 24.8 µM
TGI (M14 melanoma): 29.8 µM
TGI (SK-OV-3 ovarian): 88.6 µM
TGI (RPMI-8226 leukemia): 33.3 µM
TGI (TK-10 renal): 33.8 µM
TGI (NCI-H522 lung): 28.7 µM
TGI (HCC-2998 colon): 35.6 µM
TGI (DU-145 prostate): 28.6 µM
TGI (MDA-MB-231 breast): 26.2 µM
TGI (T-47D breast): 29.6 µM
TGI (CCRF-CEM leukemia): 81.9 µM
TGI (LOX IMVI melanoma): 26.7 µM
TGI (A549 NSCLC): 33.4 µM
TGI (SF-539 CNS): 29 µM
TGI (MDA-MB-435): 30.7 µM
TGI (HOP-62 NSCLC): 30.9 µM
TGI (COLO 205 colon): 31.3 µM
TGI (PC-3 prostate): 27 µM
TGI (MALME-3M melanoma): 31.8 µM
TGI (NCI-H23 lung): 28.9 µM
TGI (SK-MEL-5 melanoma): 29.7 µM
TGI (IGROV1 ovarian): 29.2 µM
TGI (KM12 colon): 29.9 µM
TGI (OVCAR-4 ovarian): 31.2 µM
TGI (CAKI-1 renal): 28.5 µM
TGI (NCI-H226 lung): 27.9 µM
TGI (A498 renal): 35.7 µM
TGI (SF-268 CNS): 31 µM

CCOC(=O)N1c2ccccc2C(C)=CC(C)C1C (centres undefined)
TGI (OVCAR-3 ovarian): 51.1 µM
TGI (OVCAR-8 ovarian): 44.1 µM
TGI (UACC-62 melanoma): > 100 µM
TGI (HL-60(TB) leukemia): 57.2 µM
TGI (786-0 renal): > 100 µM
TGI (K-562 leukemia): > 100 µM
TGI (SNB-19 CNS): > 100 µM
TGI (SK-MEL-2 melanoma): > 100 µM
TGI (SK-MEL-28 melanoma): > 100 µM
TGI (OVCAR-5 ovarian): > 100 µM
TGI (UO-31 renal): > 100 µM
TGI (HS 578T breast): 82.2 µM
TGI (SW-620 colon): > 100 µM
TGI (SR leukemia): 55.1 µM
TGI (UACC-257 melanoma): 88.5 µM
TGI (SN12C renal): > 100 µM
TGI (SF-295 CNS): 68.3 µM
TGI (MOLT-4 leukemia): > 100 µM
TGI (MCF7 breast): > 100 µM
TGI (MDA-N): 27.3 µM
TGI (NCI/ADR-RES ovarian): > 100 µM
TGI (HT29 colon): 40.3 µM
TGI (HCT-116 colon): 40.1 µM
TGI (NCI-H460 lung): > 100 µM
TGI (SNB-75 CNS): 69 µM
TGI (ACHN renal): > 100 µM
TGI (RXF 393 renal): 51 µM
TGI (EKVX NSCLC): 99 µM
TGI (HCT-15 colon): > 100 µM
TGI (M14 melanoma): 80 µM
TGI (SK-OV-3 ovarian): > 100 µM
TGI (RPMI-8226 leukemia): > 100 µM
TGI (TK-10 renal): 51 µM
TGI (NCI-H522 lung): 89.6 µM
TGI (HCC-2998 colon): > 100 µM
TGI (DU-145 prostate): > 100 µM
TGI (MDA-MB-231 breast): 78.4 µM
TGI (T-47D breast): > 100 µM
TGI (CCRF-CEM leukemia): > 100 µM
TGI (LOX IMVI melanoma): 63.7 µM
TGI (A549 NSCLC): > 100 µM
TGI (SF-539 CNS): 42.7 µM
TGI (MDA-MB-435): 15.8 µM
TGI (HOP-62 NSCLC): > 100 µM
TGI (COLO 205 colon): > 100 µM
TGI (PC-3 prostate): > 100 µM
TGI (MALME-3M melanoma): > 100 µM
TGI (NCI-H23 lung): 60.1 µM
TGI (SK-MEL-5 melanoma): 39.6 µM
TGI (IGROV1 ovarian): > 100 µM
TGI (KM12 colon): 83.4 µM
TGI (OVCAR-4 ovarian): > 100 µM
TGI (CAKI-1 renal): 74.3 µM
TGI (NCI-H226 lung): 80.1 µM
TGI (A498 renal): 96.5 µM
TGI (SF-268 CNS): > 100 µM
